# Test results published in PMC10798554, “Interaction of PINK1 with nucleotides and kinetin” (Science Advances, 2024).
# How the values were obtained:
# Type in all cases: biochemical
# HsPINK1 [1] = biological target: T1, HsPINK1 (Homo sapiens, UniProt Q9BXM7, M318A); test: ubiquitin phosphorylation by heavy membranes, pSer65 Western blot; settings: 15 uM ubiquitin, pH 7.4, 30 C
# T1 construct: gene PINK1; HsPINK1 expressed transiently (pcDNA5d3) in HeLa PINK1-/- cells; heavy membrane fraction after oligomycin/antimycin treatment
# T1 sequence (Q9BXM7 78-581 M318A): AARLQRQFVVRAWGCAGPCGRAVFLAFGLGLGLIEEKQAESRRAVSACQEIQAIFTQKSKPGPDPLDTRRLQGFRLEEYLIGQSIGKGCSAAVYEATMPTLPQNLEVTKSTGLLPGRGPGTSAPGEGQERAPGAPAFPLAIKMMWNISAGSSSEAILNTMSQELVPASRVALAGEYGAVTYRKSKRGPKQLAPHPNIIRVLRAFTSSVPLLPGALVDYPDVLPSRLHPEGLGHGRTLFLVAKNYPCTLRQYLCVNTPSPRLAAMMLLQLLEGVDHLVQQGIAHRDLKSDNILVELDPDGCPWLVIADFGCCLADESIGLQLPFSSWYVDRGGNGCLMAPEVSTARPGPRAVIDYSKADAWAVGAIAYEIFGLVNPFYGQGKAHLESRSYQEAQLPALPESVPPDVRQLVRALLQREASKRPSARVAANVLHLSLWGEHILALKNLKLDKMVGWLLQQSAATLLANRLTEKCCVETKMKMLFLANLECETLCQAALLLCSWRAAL
# [2] = biological target: T2, PhPINK1 (residues 115 to 575) (Pediculus humanus, UniProt E0W1I1); test: ubiquitin phosphorylation, Phos-tag SDS-PAGE; settings: 1 mM ATP, 15 uM ubiquitin, 10 mM MgCl2, pH 7.4, 22 C
# T2 construct: gene Pink1; residues 115-575, kinase domain with N- and C-terminal extensions; E. coli Rosetta2; N-terminal GST tag with 3C protease site in vector; autophosphorylated monomer for thermal shift, lambda-phosphatase-treated homo-dodecamer (six dimers) for cryo-EM
# T2 sequence (E0W1I1 115-575): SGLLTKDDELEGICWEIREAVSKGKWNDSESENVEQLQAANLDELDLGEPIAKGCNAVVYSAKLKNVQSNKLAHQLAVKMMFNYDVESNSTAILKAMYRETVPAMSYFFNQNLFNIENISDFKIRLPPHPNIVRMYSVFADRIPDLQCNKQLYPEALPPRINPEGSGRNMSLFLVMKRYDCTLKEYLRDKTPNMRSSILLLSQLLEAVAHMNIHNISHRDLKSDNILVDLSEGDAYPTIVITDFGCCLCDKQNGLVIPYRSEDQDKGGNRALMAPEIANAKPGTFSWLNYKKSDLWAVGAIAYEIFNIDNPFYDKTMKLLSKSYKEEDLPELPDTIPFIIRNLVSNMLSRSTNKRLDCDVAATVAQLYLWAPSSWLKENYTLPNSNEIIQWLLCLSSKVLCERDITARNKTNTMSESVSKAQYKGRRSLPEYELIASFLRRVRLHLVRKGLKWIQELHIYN
# HsPINK1 [3] = biological target: T3, HsPINK1 (Homo sapiens, UniProt Q9BXM7, M318G); test: ubiquitin phosphorylation by heavy membranes, pSer65 Western blot; settings: 1 mM KTP, 15 uM ubiquitin, pH 7.4, 30 C
# T3 construct: gene PINK1; HsPINK1 expressed transiently (pcDNA5d3) in HeLa PINK1-/- cells; heavy membrane fraction after oligomycin/antimycin treatment
# T3 sequence (Q9BXM7 78-581 M318G): as the sequence (Q9BXM7 78-581 M318A) above, with A241G counted along it
smiles,measurement,setting,value
Nc1ncnc2c1ncn2[C@@H]1O[C@H](COP(=O)(O)OP(=O)(O)OP(=O)(O)O)[C@@H](O)[C@H]1O [ATP],"ubiquitin phosphorylation by heavy membranes, pSer65 Western blot",HsPINK1 [1]; 1 mM ATP,"HsPINK1 M318A, is active with both ATP and KTP"
same,"ubiquitin phosphorylation, Phos-tag SDS-PAGE",[2],Time course ubiquitin phosphorylation assay using WT PhPINK1 in the presence of ATP
O=P(O)(O)OP(=O)(O)OP(=O)(O)OC[C@H]1O[C@@H](n2cnc3c(NCc4ccco4)ncnc32)[C@H](O)[C@@H]1O [KTP],"ubiquitin phosphorylation by heavy membranes, pSer65 Western blot",HsPINK1 [1]; 1 mM KTP,both mutants were able to use KTP instead of ATP to generate phospho-ubiquitin
same,"ubiquitin phosphorylation by heavy membranes, pSer65 Western blot",HsPINK1 [3],both mutants were able to use KTP instead of ATP to generate phospho-ubiquitin
